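Tested at 5 concentrations; 48 h exposure; 96-well plates; endpoints linearly interpolated, else capped at highest concentration. At the GI50, growth is halved.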 Calls of active or inactive are those of the source. Cut-off read from the data, not from the text of the source: active = GI50 up to about 1.1 µM and inactive = higher.
Experiments:
Assay in all cases: NCI-60 cell line screen, 48 h
DU-145 = tested on: DU-145
SK-MEL-2 = tested on: SK-MEL-2
HOP-62 = tested on: HOP-62
SN12C = tested on: SN12C
SK-OV-3 = tested on: SK-OV-3
COLO 205 = tested on: COLO 205
OVCAR-4 = tested on: OVCAR-4
EKVX = tested on: EKVX
MDA-MB-435 = tested on: MDA-MB-435
HCT-15 = tested on: HCT-15
M14 = tested on: M14
SF-295 = tested on: SF-295
CCRF-CEM = tested on: CCRF-CEM
K562 = tested on: K562
SK-MEL-28 = tested on: SK-MEL-28
SNB-75 = tested on: SNB-75
A549 = tested on: A549
HL-60 = tested on: HL-60
NCI-H460 = tested on: NCI-H460
SF-268 = tested on: SF-268

SMILES | GI50 (DU-145) | GI50 (SK-MEL-2) | GI50 (HOP-62) | GI50 (SN12C) | GI50 (SK-OV-3) | GI50 (COLO 205) | GI50 (OVCAR-4) | GI50 (EKVX) | GI50 (MDA-MB-435) | GI50 (HCT-15) [µM] | GI50 (M14) | GI50 (SF-295) | GI50 (CCRF-CEM) | GI50 (K562) | GI50 (SK-MEL-28) | GI50 (SNB-75) | GI50 (A549) | GI50 (HL-60) | GI50 (NCI-H460) | GI50 (SF-268)
CC1(C)CC(=O)C2=C(C1)C(c1ccccc1Cl)C1C(=O)CC(C)(C)CC1(O)O2 (stereo not given) | > 100 µM (inactive) | > 100 µM (inactive) | > 100 µM (inactive) | > 100 µM (inactive) | > 100 µM (inactive) | > 31.6 µM (inactive) | > 100 µM (inactive) | > 100 µM (inactive) | 25.9 µM (inactive) | 42.5 | 98.2 µM (inactive) | > 31.6 µM (inactive) | 26.8 µM (inactive) | 15.3 µM (inactive) | > 100 µM (inactive) | > 78.3 µM (inactive) | > 100 µM (inactive) | 4.91 µM (inactive) | > 100 µM (inactive) | > 100 µM (inactive)
Cn1c(=O)c2[nH]c(CCC(=O)O)nc2n(C)c1=O | > 100 µM (inactive) | > 100 µM (inactive) | > 100 µM (inactive) | > 100 µM (inactive) | > 100 µM (inactive) | > 100 µM (inactive) | > 100 µM (inactive) | > 100 µM (inactive) | > 100 µM (inactive) | > 100 | > 100 µM (inactive) | > 100 µM (inactive) | > 100 µM (inactive) | > 100 µM (inactive) | > 100 µM (inactive) | > 100 µM (inactive) | > 100 µM (inactive) | > 100 µM (inactive) | > 100 µM (inactive) | > 100 µM (inactive)
C[C@H]1CCC/C=C/[C@@H]2C[C@H](OC(=O)CN(C)C)C[C@H]2[C@H](O)/C=C/C(=O)O1 | 0.401 µM (active) | 0.153 µM (active) | 0.21 µM (active) | 0.158 µM (active) | 0.0586 µM (active) | 0.0476 µM (active) | 0.154 µM (active) | 0.188 µM (active) | 0.157 µM (active) | 0.188 | 0.0778 µM (active) | 0.165 µM (active) | 0.284 µM (active) | 0.241 µM (active) | 0.138 µM (active) | 0.155 µM (active) | 0.286 µM (active) | 0.22 µM (active) | 0.365 µM (active) | 0.2 µM (active)
CC(C)[C@H](NC(=O)[C@@H](O)[C@H](N)Cc1ccccc1)C(=O)N[C@@H](Cc1ccccc1)C(=O)O | > 100 µM (inactive) | > 100 µM (inactive) | > 100 µM (inactive) | > 100 µM (inactive) | > 100 µM (inactive) | > 100 µM (inactive) | > 100 µM (inactive) | > 100 µM (inactive) | > 100 µM (inactive) | > 100 | > 100 µM (inactive) | > 100 µM (inactive) | > 100 µM (inactive) | > 100 µM (inactive) | > 100 µM (inactive) | > 100 µM (inactive) | > 100 µM (inactive) | > 100 µM (inactive) | > 100 µM (inactive) | > 100 µM (inactive)
Cc1cc(-c2nc3ccc(F)cc3s2)ccc1NC(=O)[C@H](C)N | 12.7 µM (inactive) | 12.4 µM (inactive) | 8.22 µM (inactive) | 14.8 µM (inactive) | 13.6 µM (inactive) | 9.77 µM (inactive) | 10.2 µM (inactive) | 8.38 µM (inactive) | 2.49 µM (inactive) | 3.79 | 1.95 µM (inactive) | 9.71 µM (inactive) | 1.64 µM (inactive) | – | 15.4 µM (inactive) | 11.8 µM (inactive) | 5.83 µM (inactive) | 2.07 µM (inactive) | 2.14 µM (inactive) | 10 µM (inactive)
C/C(=N/NC(=S)N(Cc1ccccn1)Cc1ccccn1)c1cnccn1 | 0.713 µM (active) | 3.41 µM (inactive) | 0.594 µM (active) | 0.208 µM (active) | 0.476 µM (active) | 0.0861 µM (active) | 0.288 µM (active) | 0.189 µM (active) | 0.897 µM (active) | 0.458 | 0.0622 µM (active) | 0.374 µM (active) | 0.0551 µM (active) | 0.519 µM (active) | 0.721 µM (active) | 3.43 µM (inactive) | 0.329 µM (active) | 0.126 µM (active) | 0.601 µM (active) | 0.418 µM (active)
O=[N+]([O-])c1ccc(CN(CCCl)OCCCl)cc1 | > 100 µM (inactive) | > 100 µM (inactive) | > 100 µM (inactive) | > 100 µM (inactive) | > 100 µM (inactive) | > 100 µM (inactive) | 56.9 µM (inactive) | 92.7 µM (inactive) | > 100 µM (inactive) | 91 | > 100 µM (inactive) | > 100 µM (inactive) | 35.5 µM (inactive) | 33.8 µM (inactive) | > 100 µM (inactive) | > 100 µM (inactive) | 67.6 µM (inactive) | 40 µM (inactive) | > 100 µM (inactive) | > 100 µM (inactive)
Cc1cc2nc3[nH]nc(N)c3nc2cc1C | 36.6 µM (inactive) | > 100 µM (inactive) | 70 µM (inactive) | > 100 µM (inactive) | > 100 µM (inactive) | 44.4 µM (inactive) | > 100 µM (inactive) | 31.4 µM (inactive) | > 100 µM (inactive) | > 100 | > 100 µM (inactive) | > 100 µM (inactive) | > 100 µM (inactive) | > 100 µM (inactive) | > 100 µM (inactive) | 26.2 µM (inactive) | > 100 µM (inactive) | > 100 µM (inactive) | > 100 µM (inactive) | > 100 µM (inactive)
O=C(NCCCl)N(O)C(=O)Nc1ccccc1 | 35.4 µM (inactive) | > 100 µM (inactive) | > 100 µM (inactive) | > 100 µM (inactive) | > 100 µM (inactive) | > 100 µM (inactive) | > 100 µM (inactive) | > 100 µM (inactive) | > 100 µM (inactive) | > 100 | > 100 µM (inactive) | > 100 µM (inactive) | > 100 µM (inactive) | > 100 µM (inactive) | – | > 100 µM (inactive) | > 100 µM (inactive) | > 100 µM (inactive) | > 100 µM (inactive) | > 100 µM (inactive)
BrC1=C(Br)C2(SCCS2)[C@H]2C[C@@H]1c1ccccc12 | 47.3 µM (inactive) | 41.2 µM (inactive) | > 100 µM (inactive) | > 91.2 µM (inactive) | > 46 µM (inactive) | 29.4 µM (inactive) | 29.9 µM (inactive) | 36.9 µM (inactive) | 4.4 µM (inactive) | 17.8 | > 79.8 µM (inactive) | > 100 µM (inactive) | 14.6 µM (inactive) | 9.12 µM (inactive) | 97.9 µM (inactive) | 16.2 µM (inactive) | > 54.1 µM (inactive) | 20.9 µM (inactive) | 33.5 µM (inactive) | 63.7 µM (inactive)
COC(=O)c1ccc(C)cc1C1CN=NC12Cc1cc(C)ccc1C2=O (stereo not given) | 34 µM (inactive) | 8.22 µM (inactive) | 20.1 µM (inactive) | 23.9 µM (inactive) | 23.2 µM (inactive) | 6.44 µM (inactive) | 26.2 µM (inactive) | 23.4 µM (inactive) | 2.18 µM (inactive) | 5.24 | 9.31 µM (inactive) | 7.28 µM (inactive) | 15.9 µM (inactive) | 4.84 µM (inactive) | 23.2 µM (inactive) | 8.61 µM (inactive) | 25.4 µM (inactive) | 3.58 µM (inactive) | 27.5 µM (inactive) | 25.6 µM (inactive)
CC(C)C(NC(=O)C(Cc1ccccc1)NC(=O)[C@H]1CCC[C@H]1NC(=O)C(N)Cc1ccc(O)cc1)C(N)=O (stereo not given in full) | > 100 µM (inactive) | > 100 µM (inactive) | > 100 µM (inactive) | > 100 µM (inactive) | > 100 µM (inactive) | > 100 µM (inactive) | > 100 µM (inactive) | > 100 µM (inactive) | > 100 µM (inactive) | > 100 | > 100 µM (inactive) | > 100 µM (inactive) | > 100 µM (inactive) | > 100 µM (inactive) | > 100 µM (inactive) | > 100 µM (inactive) | > 100 µM (inactive) | > 100 µM (inactive) | > 100 µM (inactive) | > 100 µM (inactive)
N/N=C(\Nc1ccccc1)SCc1ccccc1 | > 100 µM (inactive) | > 100 µM (inactive) | > 100 µM (inactive) | > 100 µM (inactive) | > 100 µM (inactive) | > 100 µM (inactive) | > 100 µM (inactive) | – | > 100 µM (inactive) | > 100 | > 100 µM (inactive) | > 100 µM (inactive) | > 100 µM (inactive) | > 100 µM (inactive) | > 100 µM (inactive) | 41.7 µM (inactive) | > 100 µM (inactive) | > 100 µM (inactive) | > 100 µM (inactive) | –
c1cncc(-c2cc(-c3cc(-c4cccnc4)[nH]n3)n[nH]2)c1 | > 100 µM (inactive) | > 100 µM (inactive) | > 100 µM (inactive) | > 100 µM (inactive) | > 100 µM (inactive) | > 100 µM (inactive) | > 100 µM (inactive) | > 100 µM (inactive) | > 100 µM (inactive) | > 100 | > 100 µM (inactive) | > 100 µM (inactive) | – | > 100 µM (inactive) | > 100 µM (inactive) | > 100 µM (inactive) | > 100 µM (inactive) | > 100 µM (inactive) | > 100 µM (inactive) | > 100 µM (inactive)

Source: ChEMBL document CHEMBL1201862, “PubChem BioAssay data set” (2004)
